In ChEMBL document CHEMBL2073834, “Transport of temocaprilat into rat hepatocytes: role of organic anion transporting polypeptide” (J Pharmacol Exp Ther, 1998) one finds Activity and Km data, which are given here for three molecules.

Holding throughout (type): functional, cell-based
The target in series [1] is T1, Solute carrier organic anion transporter family member 1A1 (Rattus norvegicus, UniProt P46720).
T1 sequence (P46720 whole entry): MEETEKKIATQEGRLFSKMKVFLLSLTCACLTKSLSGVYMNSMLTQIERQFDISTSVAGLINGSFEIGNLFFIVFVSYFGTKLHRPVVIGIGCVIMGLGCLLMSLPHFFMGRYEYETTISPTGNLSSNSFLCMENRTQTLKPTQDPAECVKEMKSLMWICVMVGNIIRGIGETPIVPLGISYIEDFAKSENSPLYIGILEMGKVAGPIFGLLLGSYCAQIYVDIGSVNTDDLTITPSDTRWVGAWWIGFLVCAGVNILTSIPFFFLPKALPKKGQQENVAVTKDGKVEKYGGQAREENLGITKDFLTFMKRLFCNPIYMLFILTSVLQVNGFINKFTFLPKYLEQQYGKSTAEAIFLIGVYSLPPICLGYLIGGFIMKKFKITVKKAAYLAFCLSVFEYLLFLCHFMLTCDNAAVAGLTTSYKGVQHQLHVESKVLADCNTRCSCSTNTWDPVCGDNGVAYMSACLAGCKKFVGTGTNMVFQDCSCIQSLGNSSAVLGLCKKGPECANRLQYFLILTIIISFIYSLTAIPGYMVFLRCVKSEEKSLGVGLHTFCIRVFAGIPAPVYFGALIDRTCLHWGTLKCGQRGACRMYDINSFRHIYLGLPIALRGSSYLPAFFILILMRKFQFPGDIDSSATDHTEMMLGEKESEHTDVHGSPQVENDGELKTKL
Put plainly: TP_TRANSPORTER: inhibition of Temocaprilat uptake (Temocaprilat: 0.1 uM, DBSB: 100 uM) in Oatp1-expressing COS-7 cells. As to conditions: monkey, cos-7, 100 µM.

The target in series [2] is T1, Solute carrier organic anion transporter family member 1A1. Kind of series: TP_TRANSPORTER: inhibition of Temocaprilat uptake (Temocaprilat: 0.1 uM, E217betaG: 10 uM) in Oatp1-expressing COS-7 cells. The conditions noted are these: monkey, cos-7, 10 µM.
Substrate in series [3]: C[C@]12CC[C@@H]3c4ccc(O)cc4CC[C@H]3[C@@H]1CC[C@@H]2O[C@@H]1O[C@H](C(=O)O)[C@@H](O)[C@H](O)[C@H]1O
Kind of series: (§1) TP_TRANSPORTER: uptake in Oatp1-expressing COS-7 cells.

Substrate in series [4]: O=C(O)CN1C[C@@H](c2cccs2)SC[C@H](N[C@@H](CCc2ccccc2)C(=O)O)C1=O
Described as §1.

As to `O=C1OC(c2ccc(OS(=O)(=O)O)cc2)(c2ccc(OS(=O)(=O)O)cc2)c2c(Br)ccc(Br)c21` [DIBROMOSULFOPHTHALEIN], the Activity entry in series [1] was “inhibitor [(at a rough estimate) 5 % of control]”. For `C[C@]12CC[C@@H]3c4ccc(O)cc4CC[C@H]3[C@@H]1CC[C@@H]2O[C@@H]1O[C@H](C(=O)O)[C@@H](O)[C@H](O)[C@H]1O` [ESTRADIOL 17B GLUCURONIDE], the Activity result in series [2] was “inhibitor [(at a rough estimate) 55 % of control]”.

B1: Solute carrier organic anion transporter family member 1A1 (Rattus norvegicus) (protein)
chain: T1 sequence (P46720 whole entry)
As usually defined, the Km is the concentration of substrate that gives half-maximal velocity. Take B1: the Km amounted to 11 µM in series [3] and 46.7 µM in series [4].
